Reference: US6287813A, “Antibiotic-based gene regulation system” (Cistronics Cell Technology GmbH, priority 1999, dated 2001)

What was measured:
[1] = biological target: T1, Pip/PPIR ON (Streptomyces coelicolor, UniProt Q9ADN3); type: cell-based
T1 sequence (Q9ADN3 1-252): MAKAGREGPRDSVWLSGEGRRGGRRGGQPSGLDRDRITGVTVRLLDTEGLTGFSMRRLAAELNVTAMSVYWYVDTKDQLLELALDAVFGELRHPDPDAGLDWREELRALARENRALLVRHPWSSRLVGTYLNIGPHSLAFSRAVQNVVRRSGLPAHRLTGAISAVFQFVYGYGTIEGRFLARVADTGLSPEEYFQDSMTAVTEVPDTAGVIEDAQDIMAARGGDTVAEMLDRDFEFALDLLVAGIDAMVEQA
Excerpt: (§1) The Classical PIT/PPIR system belongs to the "OFF" family of regulation concepts since gene expression is activated upon withdrawal of the regulating antibiotic. However, in some applications such as gene therapy and tissue engineering an "ON" system which is induced upon addition of streptogramin antibiotics is more desirable. We therefore constructed a new Pip-based binary PION system which consists of a PPIR ON promoter and a set of two different transrepressors. PPIR ON consists of a PIR3 module containing 3 consecutive Pip binding elements (SEQ ID NO:21; Example 3) placed in front of the strong viral SV40 promoter. Transrepressors such as PIT3, which consists of a protein fusion between Pip and the KRAB silencing domain of the human kox-1 gene (Deuschle et al., 1995, Mol. Cell Biol. 15: 1907-1914) and PIT4, which is simply Pip expressed in a eukaryotic configuration, bind to PIR3 in front of PSV40 and block transcription of this promoter. Besides sterical transcription blocking the silencing domain of PIT3 can additionally downregulate PSV40 activity. […]
(§2) Table 9: Comparison of the regulation characteristics of the PipON systems. CHO-K1 cells were simultaneously cotransfected with the plasmids indicated and the SEAP readout (slope a of the p-nitrophenolphosphate-based light absorbance time courses) was determined in the presence and absence of pristinamycin 48 hr post transfection. […]
In order to assess the regulation potential of different streptogramin antibiotics, pMF225 or pMF150 encoding PIT4 were cotransfected with pMF208 (PPIR ON-SEAP) into CHO-K1 cells and the SEAP induction was measured 48 following transfection (as described above in Example 1) and addition of the following streptogramin antibiotics: (i) PI, the group B streptogramin component of pristinamycin; (ii) Pyostacin, the human oral antibiotic; (iii) Synercid, the first injectable semi-synthetic pristinamycin derivative effective against most multidrug resistant human pathogenic bacteria and (iv) virginiamycin used as growth promotant in livestock feed. […]

[2] = biological target: T2, PIT3/PPIR ON (Streptomyces coelicolor, UniProt Q9ADN3); assay: PipON SEAP assay, CHO-K1 cotransfected with pMF208 (PPIR ON-SEAP) and pMF207 (PIT3; Pip-KRAB); type: cell-based
T2 construct: pMF207 with pMF208 in CHO-K1
T2 sequence (Q9ADN3 1-252): T1 sequence (Q9ADN3 1-252)
Excerpt: as §1, §2

[3] = tested on: CHO cells; assay: CHO cell morphology, growth and toxicity; type: cell-based, Chinese hamster
Method: However, pristinamycin has no influence on expression levels of PSV40 or PCMV -driven SEAP expression constructs (data not shown). […] Similar PI-dependent gene expression using the PIT/PPIR system has also been observed in BHK-21 and HeLa cells (not shown). […] This is the same order of magnitude as tissue concentrations reached in antibiotic therapy. Only much higher PI concentrations (above 50 μg/ml) were toxic for CHO cells.

pristinamycin I [PI]
SEAP readout (slope of the p-nitrophenolphosphate-based light absorbance time courses) ([1]; +PI (2 μg/ml) column, CHO + pMF208 + pMF225, 48 hr post transfection): 0.019 ± 0.002 | SEAP Production (slope of the p-nitrophenolphosphate-based light absorbance time courses) ([1]; CHO-K1 + pMF225 + pMF208, 2 μg/ml group B component, 48 hr post transfection): 0.65 ± 0.03 | Induction factor ([1]; PIT4-PPIR ON configuration (pMF225-pMF208)): 25 | SEAP readout (slope of the p-nitrophenolphosphate-based light absorbance time courses) ([2]; +PI (2 μg/ml) column, CHO + pMF208 + pMF207, 48 hr post transfection): 0.00055 ± 0.0003 | Induction factor ([2]; PIT3-PPIR ON configuration, 2880 min): about 150 | Effects on CHO cell morphology and growth ([3]; PI 2 μg/ml): No deleterious effects | PI concentration toxic for CHO cells ([3]; hamster, cho cells): above 50 μg/ml
